Experimental data: patent US20040219543A1, “Method for specifically detecting, isolating and characterizing cells from body samples by transfecting nucleic acid constructs” (priority 2001, published 2004)

Legend:
PPARδ = target: T1, PPARδ (Homo sapiens, UniProt Q03181); test: PPARδ-responsive αGFPT204I reporter gene expression in transfected SW480 cells incubated with NSAIDs, flow cytometry; type: cell-based; details: 300 μM, 10 hour incubation of transfected SW480 cells; expression returns virtually to background level
T1 construct: Because of Wnt signal activity, SW480 cells overexpress the transcription factor PPARδ; endogenous in cells; host or cells: SW480 colon carcinoma cells
T1 sequence (Q03181 1-441): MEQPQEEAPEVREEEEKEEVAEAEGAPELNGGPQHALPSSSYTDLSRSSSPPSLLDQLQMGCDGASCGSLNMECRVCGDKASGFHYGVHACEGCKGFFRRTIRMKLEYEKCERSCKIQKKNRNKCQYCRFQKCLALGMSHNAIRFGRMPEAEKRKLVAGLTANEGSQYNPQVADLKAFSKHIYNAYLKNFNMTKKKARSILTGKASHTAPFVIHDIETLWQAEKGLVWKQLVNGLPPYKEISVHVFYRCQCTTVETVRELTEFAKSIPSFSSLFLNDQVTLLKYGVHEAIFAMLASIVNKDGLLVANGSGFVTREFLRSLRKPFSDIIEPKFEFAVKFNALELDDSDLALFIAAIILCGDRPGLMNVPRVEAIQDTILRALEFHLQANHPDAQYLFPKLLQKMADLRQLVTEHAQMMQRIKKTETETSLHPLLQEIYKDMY

tumor cells = details: by inhibiting the PPARδ transcription factor; cited from earlier work

## CSc1ccc(/C=C2/C(C)=C(CC(=O)O)c3cc(F)ccc32)cc1 [Sulindac sulphide]
PPARδ
  inhibition of the observed activation of the FOP-αGFPT204I reporter gene in the presence of functional PPARδ-DNA binding sites: significantly inhibits

## CC(=O)Oc1ccccc1C(=O)O [aspirin]
Tumor cells
  growth of tumor cells: able to inhibit the growth of tumor cells

## COc1ccc2c(c1)c(CC(=O)O)c(C)n2C(=O)c1ccc(Cl)cc1 [indomethacin]
PPARδ
  inhibition of the observed activation of the FOP-αGFPT204I reporter gene in the presence of functional PPARδ-DNA binding sites: significantly inhibits

## CC1=C(CC(=O)O)c2cc(F)ccc2/C1=C\c1ccc([S+](C)[O-])cc1 (stereo not shown) [sulindac]
Tumor cells
  growth of tumor cells: able to inhibit the growth of tumor cells
